Data taken from patent US20230390220A1, “MONOAMINE OXIDASE BLOCKADE THERAPY FOR TREATING CANCER THROUGH REGULATING ANTITUMOR T CELL IMMUNITY” (THE REGENTS OF THE UNIVERSITY OF CALIFORNIA, priority 2020, published 2023).

What was measured:
CD8 T cells = experiment: In vitro mouse CD8 T cell activation with anti-CD3 (ELISA / flow cytometry); format: cell-based; conditions: for CD8 T cell hyperactivation (expression of CD25, Granzyme B, IL-2, IFN-γ): B6 wildtype CD8 T cells, anti-CD3, Phe 10 μM, Moc 200 μM, Clo 20 μM; for IL-2 and IFN-γ production: Maoa-WT CD8 T cells, 4-day time course post anti-CD3, treatment 10 μM vs NT
Description: The coating and biotinylated antibodies for the detection of mouse IFN-γ (coating antibody, cat #554424; biotinylated detection antibody, cat #554426) and IL-2 (coating antibody, cat #551216; biotinylated detection antibody, cat #554410) were purchased from BD Biosciences. The streptavidin-HRP conjugate (Cat #18410051) was purchased from Invitrogen. Mouse IFN-γ (Cat #575309) and IL-2 (Cat #575409) standards were purchased from BioLegend. The 3,3′,5,5′-Tetramethylbenzidine (TMB, cat #51200048) substrate was purchased from KPL.

B16-OVA melanoma [1] = experiment: Syngeneic B16-OVA melanoma tumor model, tumor growth; format: in vivo, mouse; conditions: for Tumor growth, B16-OVA melanoma prevention model: i.p., phenelzine 30 mg/kg/day, moclobimide 50 mg/kg/day, clorgyline 50 mg/kg/day
Experimental: (§1) B16-OVA melanoma cells (1×10^6 per animal) or MC38 colon cancer cells (3×10^5 per animal) were subcutaneously (s.c.) injected into experimental mice to form solid tumors. In some experiments, mice received intraperitoneal (i.p.) injection of MAOIs (i.e., phenelzine, 30 mg/kg/day; moclobimide, 50 mg/kg/day; or clorgyline, 50 mg/kg/day) to block MAO-A activity. In some experiments, mice received i.p. injection of anti-mouse CD8α antibodies (200 μg/animal/bi-weekly) to deplete CD8 T cells; mice received i.p. injection of isotype antibodies were included as controls. In some experiments, mice received i.p. injection of anti-mouse PD-1 antibodies (300 μg/animal/bi-weekly) to block PD-1; mice received i.p. injection of isotype antibodies were included as controls.
(§2) During an experiment, tumor growth was monitored twice per week by measuring tumor size using a Fisherbrand™ Traceable™ digital caliper (Thermo Fisher Scientific); tumor volumes were calculated by formula ½×L×W^2. At the end of an experiment, tumor-infiltrating immune cells were isolated for analysis using QPCR, flow cytometry, and/or scRNASeq. In some experiments, sera were also collected for serotonin measurement.

B16-OVA melanoma [2] = conditions: Maoa-WT mice
Experimental: as §1, §2
HPLC was used to measure intratumoral and serum serotonin levels as previously described (47, 48). Briefly, tumors and sera were collected from experimental mice at indicated time points, and were snap-frozen using liquid nitrogen. Frozen samples were thawed and homogenized using methanol and acetonitrile by vortexing. Homogenized samples were centrifuged, and supernatants were collected to new tubes and evaporated under a stream of argon. Dried sample pellets were then reconstituted in HPLC running buffer and were ready for analysis. Serotonin concentration was quantified using a C 18 column by reverse phase HPLC (System Gold 166P detector, Beckman Coulter)

MC38 colon cancer = system: MC38 colon cancer
Experimental: as §1, §2

[3] = system: tumor-infiltrating CD8 T cells; conditions: B16-OVA, day 17, phenelzine vs NT, FACS
Experimental: as §1

[4] = system: A375-A2-ESO-FG human melanoma cells
Experimental: The A375-A2-ESO-FG human melanoma cells (10×10^6 cells per animal) were s.c. injected into NSG mice to form solid tumors. In some experiments, mice received phenelzine treatment through i.p. injection (30 mg/kg/day). In some experiments, mice received adoptive transfer of ESO-T cells through r.o. injection (4×10^6 cells per recipient mouse). Prior to ESO-T cell adoptive transfer, recipient mice were preconditioned with total body irradiation (100 rads). During an experiment, tumor growth was monitored twice per week by measuring tumor size using a Fisherbrand™ Traceable™ digital caliper; tumor volumes were calculated by formula ½×L×W^2.

Maoa-WT CD8 T cells = conditions: 24-hour post anti-CD3 stimulation, phenelzine 10 μM vs NT, ELISA
Experimental: Spleen and lymph node cells were harvested from Maoa-KO or Maoa-WT (B6 wildtype) mice and subjected to MACS using a Mouse CD8 T Cell Isolation Kit (Cat #120117044, Miltenyi Biotec) following the manufacturer's instructions. Purified mouse CD8 T cells were cultured in vitro in C10 medium, in a 24-well plate at 0.5×10^6 cells per ml medium per well, in the presence of plate-bound anti-mouse CD3ε (5 μg/ml) for up to 4 days. At indicated time points, cells were collected for flow cytometry analysis of surface marker expression and intracellular effector molecule production, and for QPCR analysis of mRNA expression; cell culture supernatants were collected for ELISA analysis of effector cytokine production. In experiments studying serotonin signaling, cells were cultured in C10 medium made of serotonin-depleted FBS that was pretreated overnight with charcoal-dextran (Cat #C6241, Sigma; 1 gram per 50 ml FBS). L-Ascorbic acid (Cat #A4403, Sigma; 100 μM) was added to C10 medium to stabilize T cell-produced or supplemented serotonin. […] In some experiments, cells were supplemented with exogenous serotonin (SER, 10 μM) to stimulate serotonin signaling. In some experiments, cells were treated with serotonin receptor antagonist asenapine (ASE, 10 μM) to block serotonin receptor signaling. […] The absorbance at 450 nm was measured using an Infinite M1000 microplate reader (Tecan).

5-HTRs on CD8 T cells = experiment: Western blot of 5-HTR (MAPK) and TCR signaling in CD8 T cells; format: cell-based, mouse; conditions: anti-CD3 2 days, asenapine 10 μM, restimulated 20 minutes
Experimental: CD8 T cells purified from Maoa-WT and Maoa-KO mice were cultured in vitro in a 24-well plate at 0.5×10^6 cells per well for 2 days, in the presence of plate-bound anti-mouse CD3ε (5 μg/ml), with or without asenapine treatment (10 μM). Cells were then rested on ice for 2 hours and restimulated with plate-bound anti-mouse CD3ε (5 μg/ml) for 20 minutes. Total protein was extracted using a lysis buffer containing 20 mM HEPES (pH 7.6), 150 mM NaCl, 1 mM EDTA, 1% TritonX-100, and protease/phosphatase inhibitor cocktail (Cat #5872S, Cell Signaling). Nuclear protein was extracted using a Nuclear Protein Extraction Kit (Cat #P178833, Thermo Fisher Scientific). Protein concentration was measured a BCA Assay Kit (Cat #23228 and Cat #1859078, Thermo Fisher Scientific). Equal amounts of protein were resolved on a 10% SDS-PAGE gel and then transferred to a PVDF membrane by electrophoresis. MAO-A antibody was purchased from Abcam (Cat #ab126751, Clone EPR7101). […] Signals were visualized with autoradiography using an ECL system (Cat #RPN2232, Thermo Fisher Scientific). The data were analyzed using an Image Lab software (Bio-Rad).

[5] = B6 wildtype mice, combination study with anti-PD-1 (Iso, Phe+Iso, αPD-1, Phe+αPD-1)

With C#CCN(C)CCCOc1ccc(Cl)cc1Cl [clorgyline] the “CD8 T cell hyperactivation (expression of CD25, Granzyme B, IL-2, IFN-γ)” value (shortened to “CD8 T cell hyperactivation”) (CD8 T cells) was “efficiently induced CD8 T cell hyperactivation” and the “Tumor growth, B16-OVA melanoma prevention model” value (B16-OVA melanoma [1]; B6 wildtype mice) was “dramatically suppressed tumor growth”.

For NCCc1c[nH]c2ccc(O)cc12 [serotonin], the “IL-2 and IFN-γ production” value (CD8 T cells; ELISA) was “T cell hyperactivation and elevated production of IL-2 and IFN-γ”.

O=C(NCCN1CCOCC1)c1ccc(Cl)cc1 [mocolobemide, moclobemide] was tested, and the “CD8 T cell hyperactivation” value (CD8 T cells) was “efficiently induced CD8 T cell hyperactivation” and the “Tumor growth, B16-OVA melanoma prevention model” value (B16-OVA melanoma [1]; B6 wildtype mice) was “dramatically suppressed tumor growth”.

In the case of NNCCc1ccccc1 [phenelzine], the “CD8 T cell hyperactivation” value (CD8 T cells) is reported as “efficiently induced CD8 T cell hyperactivation”, the “IL-2 and IFN-γ production” value (CD8 T cells; ELISA) is reported as “increased production of the effector cytokines IL-2 and IFN-γ” and the “Phenelzine treatment-induced accumulation of serotonin in the tumor after depletion of CD8 T cells” value (B16-OVA melanoma [2]; anti-CD8 antibody depletion, day 14, HPLC) is reported as “largely abolished”. The Serum serotonin levels (B16-OVA melanoma [2]; day 14, with or without phenelzine and anti-CD8, HPLC) was “no significant changes in serotonin levels in serum”, the Intratumoral serotonin levels (B16-OVA melanoma [2]; day 14 post tumor challenge, phenelzine vs NT, HPLC) was “increased levels of serotonin” and the B16-OVA tumor growth (B16-OVA melanoma [1]; [5]) was “significantly suppressed tumor growth at a level comparable to the anti-PD-1 treatment”. For the same compound, the “Tumor growth, B16-OVA melanoma prevention model” value (B16-OVA melanoma [1]; B6 wildtype mice) was “dramatically suppressed tumor growth”, the “Tumor progression, pre-established B16-OVA melanoma solid tumors” value (B16-OVA melanoma [1]; B6 wildtype mice, phenelzine vs NT) was “effectively suppressed tumor progression” and the “B16-OVA tumor growth in immunodeficient NSG mice” value (B16-OVA melanoma [1]; NSG mice, phenelzine vs NT) was “did not suppress the growth”. For the same compound, the “Tumor suppression with CD8 T cells depleted” value (B16-OVA melanoma [1]; tumor-bearing B6 wildtype mice, phenelzine + anti-CD8) was “no tumor suppression was observed”, the MC38 tumor growth (MC38 colon cancer; [5]) was “completely suppressed tumor growth as effectively as the anti-PD-1 treatment” and the “MC38 tumor growth in immunodeficient NSG mice” value (MC38 colon cancer; NSG mice, phenelzine vs NT) was “did not suppress the growth”. The “Expression of exhaustion markers (PD-1) on tumor-infiltrating CD8 T cells” value [3] was “reduced expression of exhaustion markers”, the “Production of effector molecules (IFN-γ and Granzyme B) by tumor-infiltrating CD8 T cells” value [3] was “enhanced production of effector molecules” and the “A375-A2-ESO-FG tumor growth without ESO-T cell adoptive transfer” value ([4]; NSG mice without ESO-T cells, phenelzine vs NT) was “no tumor suppression was observed”. For the same compound, the “A375-A2-ESO-FG tumor growth with ESO-T cell adoptive transfer” value ([4]; NSG mice, ESO-T cells, phenelzine i.p. 30 mg/kg/day vs NT) was “effectively suppressed tumor growth” and the “Serotonin levels in CD8 T cell cultures” value (Maoa-WT CD8 T cells) was “recapitulated the serotonin overproduction phenotype of Maoa-KO CD8 T cells”.

In the case of CN1CC2c3ccccc3Oc3ccc(Cl)cc3C2C1 (stereo not drawn) [asenapine], the “IL-2 and IFN-γ production difference between Maoa-WT and Maoa-KO CD8 T cells” value (CD8 T cells; day 2 post anti-CD3 stimulation, asenapine 10 μM, ELISA) is reported as “eliminated the cytokine production difference between Maoa-WT and Maoa-KO CD8 T cells” and the “Enhancement of MAPK signaling (ERK phosphorylation) and TCR downstream signaling (NFAT, NF-κB, c-Jun) in Maoa-KO T cells” value (5-HTRs on CD8 T cells) is reported as “largely abrogated”.
